Laboratory results taken from patent US6784201B2, “Benzothiepines having activity as inhibitors of ileal bile acid transport and taurocholate uptake” (G.D. Searle & Company, priority 1994, dated 2004).
Counter-ions that a name gives are not always drawn. Like-named read-outs stand apart in the source and are kept apart here.

What was measured:
fecal bile acid (FBA) = assay: Rat gavage assay (fecal bile acid increase); assay type: in vivo
human IBAT = target: T1, human IBAT (Homo sapiens, UniProt Q12908); assay: In vitro assay of IBAT-mediated uptake of [14C]-taurocholate (TC) in H14 cells; assay type: cell-based; conditions: read-out: Human TC IC50
T1 construct: expressed in transfected cells; host or cells: Baby hamster kidney (BHK) cells, clone H14
T1 sequence (Q12908 1-348): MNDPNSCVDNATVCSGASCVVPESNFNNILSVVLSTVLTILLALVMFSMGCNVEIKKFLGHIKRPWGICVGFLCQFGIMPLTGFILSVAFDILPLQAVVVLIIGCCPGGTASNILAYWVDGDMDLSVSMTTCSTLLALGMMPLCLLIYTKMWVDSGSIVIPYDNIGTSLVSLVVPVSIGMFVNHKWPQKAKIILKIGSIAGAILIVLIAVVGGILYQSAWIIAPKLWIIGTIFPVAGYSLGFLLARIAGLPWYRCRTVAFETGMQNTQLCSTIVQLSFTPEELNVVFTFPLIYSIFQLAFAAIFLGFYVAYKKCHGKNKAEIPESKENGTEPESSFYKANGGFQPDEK
Outline: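 BHK cells stably expressing human IBAT (H14) were incubated 2 h at 37° C with compound and 3 μM final [14C]-taurocholate in DMEM (4.5 g/L glucose) plus 0.2% fatty acid-free BSA. After cold PBS washes, cell-associated radioactivity was measured by scintillation counting.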

[1] = In Vitro Taurocholate Uptake, Table 10

SMILES	melting point [°C]	Delta (micromoles fecal bile acid per day) (fecal bile acid (FBA); dose 2 mg/kg/day)	Delta (micromoles fecal bile acid per day) (fecal bile acid (FBA); dose .016 mg/kg/day)	Delta (micromoles fecal bile acid per day) (fecal bile acid (FBA); dose .08 mg/kg/day)	Delta (micromoles fecal bile acid per day) (fecal bile acid (FBA); dose .4 mg/kg/day)	IC50 (human IBAT; [1]) [nM]	IC50 (human IBAT) [nM]	Delta (micromoles fecal bile acid per day) (fecal bile acid (FBA); dose 5 mg/kg/day)	Delta (micromoles fecal bile acid per day) (fecal bile acid (FBA); dose .04 mg/kg/day)	Delta (micromoles fecal bile acid per day) (fecal bile acid (FBA); dose .2 mg/kg/day)
CCCCC1(CCCC)CS(=O)(=O)c2ccc(N(C)C)cc2[C@@H](c2ccc(OCCCCC[n+]3cccc4ccccc43)cc2)[C@H]1O (as salt: methanesulfonate) [Example 1412, (4R-cis)-1-[5-[4-[3,3-Dibutyl-7-(dimethylamino)-2,3,4,5-tetrahydro-4-hydroxy-1,1-dioxido-1-benzothiepin-5-yl]phenoxy]pentyl]quinolinium, methanesulfonate (Salt)]	136	–	–	–	–	–	–	–	–	–
CCCCC1(CCCC)CS(=O)(=O)c2ccc(N(C)C)cc2[C@@H](c2ccc(OCCCCC[N+](C)(C)CCCCCC[N+](C)(C)CCCCCOc3ccc([C@@H]4c5cc(N(C)C)ccc5S(=O)(=O)CC(CCCC)(CCCC)[C@@H]4O)cc3)cc2)[C@H]1O (relative stereo) [Example 1419, [4R-[4a,5a(4R*,5R*)]]-N,N′-bis[5-[4-[3,3-Dibutyl-7-(dimethylamino)-2,3,4,5-tetrahydro-4-hydroxy-1,1-dioxido-1-benzothiepin-5-yl]phenoxy]pentyl]-N,N,N′N′-tetramethyl-1,6-hexanediaminium dichloride]	178 to 182	28.5 micromoles fecal bile acid per day	5.8 micromoles fecal bile acid per day	10.3 micromoles fecal bile acid per day	13.9 micromoles fecal bile acid per day	3	–	–	–	–
CCC1(CC)CS(=O)(=O)c2ccc(NC(=O)OCc3ccccc3)cc2[C@@H](c2ccccc2)[C@H]1O [Example 286]	180 to 181	–	–	–	–	–	19000	–	–	–
CCCCC1(CCCC)CS(=O)(=O)c2ccc(N(C)C)cc2[C@@H](c2ccc(OCCCCS(N)(=O)=O)cc2)[C@H]1O [Example 1405]	108 to 110	–	–	–	–	21	–	–	–	–
CCCCC1(CCCC)CS(=O)(=O)c2ccc(N(C)C)cc2[C@@H](c2ccc(OCCCCCC(C(=O)O)C(=O)O)cc2)[C@H]1O [Example 1413, (4S-cis)-[5-[4-[3,3-Dibutyl-7-(dimethylamino)-2,3,4,5-tetrahydro-4-hydroxy-1,1-dioxido-1-benzothiepin-5-yl]phenoxy]pentyl]propanedioic acid]	118	–	–	–	–	3	–	52.3 micromoles fecal bile acid per day	19 micromoles fecal bile acid per day	42.4 micromoles fecal bile acid per day
CCCCC1(CCCC)CS(=O)(=O)c2ccc(N(C)C)cc2[C@@H](c2ccc(OCCCCC[N+](C)(C)CC[N+](C)(C)CC)cc2)[C@H]1O [Example 1418, (4R-cis)-N-[5-[4-[3,3-Dibutyl-7-(dimethylamino)-2,3,4,5-tetrahydro-4-hydroxy-1,1-dioxido-1-benzothiepin-5-yl]phenoxy]pentyl]-N′-ethyl-N,N,N′,N′-tetramethyl-1,2-ethanediaminium dichloride]	193 to 197	20.3 micromoles fecal bile acid per day	−10 micromoles fecal bile acid per day	−4.6 micromoles fecal bile acid per day	29.5 micromoles fecal bile acid per day	< 1	–	–	–	–
CCCCC1(CCCC)CS(=O)(=O)c2ccc(N(C)C)cc2[C@@H](c2ccc(OCCCCCc3nn[nH]n3)cc2)[C@H]1O [Example 1420, (4R-cis)-3,3-Dibutyl-7-(dimethylamino)-2,3,4,5-tetrahydro-5-[4-[[5-(1H-tetrazol-5-yl)pentyl]oxy]phenyl]-1-benzothiepin-4-ol 1,1-dioxide]	80 to 85	53.1 micromoles fecal bile acid per day	29.6 micromoles fecal bile acid per day	38.1 micromoles fecal bile acid per day	45 micromoles fecal bile acid per day	11	–	–	–	–
CCCCC1(CCCC)CS(=O)(=O)c2ccc(N(C)C)cc2[C@@H](c2ccc(OCCCCCOc3cc(C(=O)O)nc(C(=O)O)c3)cc2)[C@H]1O [Example 1421]	143	57.8 micromoles fecal bile acid per day	4.7 micromoles fecal bile acid per day	25.3 micromoles fecal bile acid per day	27.7 micromoles fecal bile acid per day	4	–	–	–	–
CCCCC1(CCCC)CS(=O)(=O)c2ccc(N(C)C)cc2[C@@H](c2ccc(OCCCCCNC(=N)N)cc2)[C@H]1O [Example 1422, (4R-cis)-[5-[4-[3,3-Dibutyl-7-(dimethylamino)-2,3,4,5-tetrahydro-4-hydroxy-1,1-dioxido-1-benzothiepin-5-yl]phenoxy]pentyl]guanidine]	67 to 72.5	–	–	–	–	3	–	–	–	–
CCCCC1(CCCC)CS(=O)(=O)c2ccc(N(C)C)cc2[C@@H](c2ccc(OCc3ccc(C(=O)O)cc3)cc2)[C@H]1O [Example 1424, (4R-cis)-4-[[4-[3,3-Dibutyl-7-(dimethylamino)-2,3,4,5-tetrahydro-4-hydroxy-1,1-dioxido-1-benzothiepin-5-yl]phenoxy]methyl]benzoic acid]	156 to 159	–	–	–	–	14	–	–	–	–
CCCCC1(CCCC)CS(=O)(=O)c2ccc(N(C)C)cc2[C@@H](c2ccc(OCc3cccc(CCC(=O)O)n3)cc2)[C@H]1O [Example 1430, (4R-cis)-6-[[4-[3,3-Dibutyl-7-(dimethylamino)-2,3,4,5-tetrahydro-4-hydroxy-1,1-dioxido-1-benzothiepin-5-yl]phenoxy]methyl]-2-pyridinepropanoic acid]	105 to 107	51.2 micromoles fecal bile acid per day	−5.6 micromoles fecal bile acid per day	20.7 micromoles fecal bile acid per day	50.4 micromoles fecal bile acid per day	3	–	–	–	–
CCCCC1(CCCC)CS(=O)(=O)c2ccc(N(C)C)cc2[C@@H](c2ccc(OCCOCCC(C(=O)O)C(=O)O)cc2)[C@H]1O [Example 1432, (4S-cis)-[2-[2-[4-[3,3-Dibutyl-7-(dimethylamino)-2,3,4,5-tetrahydro-4-hydroxy-1,1-dioxido-1-benzothiepin-5-yl]phenoxy]ethoxy]ethyl]propanedioic acid]	119.5	–	–	–	–	26	–	36.2 micromoles fecal bile acid per day	2.4 micromoles fecal bile acid per day	9.7 micromoles fecal bile acid per day
